Where “and” joins values, the source holds several entries; their conditions need not be identical. Identical values can stand only once. Non-standard residues stand in square brackets, D forms with d. No end group written: not given here. βAla = NCCC(=O)O
biological target: binding of L HBsAg to HBV core antigen (Hepatitis B virus genotype D subtype adw, UniProt P03147); test: not given; conditions: N/D represents no observable inhibition; read-out: IC50 μM, concentration of peptide required to inhibit binding of L HBsAg to HBV core antigen at a half maximal level; cited from earlier work
Sequence (P03147 3-183): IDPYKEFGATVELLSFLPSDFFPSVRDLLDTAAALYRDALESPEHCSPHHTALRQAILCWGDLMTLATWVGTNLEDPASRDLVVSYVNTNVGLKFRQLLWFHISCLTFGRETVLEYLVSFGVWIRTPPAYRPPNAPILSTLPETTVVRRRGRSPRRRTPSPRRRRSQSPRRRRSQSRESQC

| Molecule | IC50 |
| --- | --- |
| ACSLLGRMKG | 26.2 ± 5 µM |
| ADGSLLGRMKGAAG | 4.5 ± 0.8 µM |
| ALLGRMKG | 10 µM and 11 µM |
| CLLGRMKC | 652 ± 74 µM |
| DGSLLGRMKGAA | 3 ± 0.4 µM |
| HRSLLGRMKGA | 0.5 ± 0.04 µM |
| LGRMKG | 980 ± 157 µM |
| LLGRMKG | 46.2 ± 7.4 µM |
| MHRSLLGRMKGA | 0.8 ± 0.1 µM |
| MHRSLLGRMKGAG(β-A)GC | 3.8 ± 0.69 µM |
| RSLLGRMKGA | 0.29 ± 0.02 µM |
| RSLLGRMKGA(β-A)C (RSLLGRMKGA[βAla]C) | 0.29 ± 0.03 µM |
| SLLGRMK | 40.7 ± 4.8 µM |
| SLLGRMKG | 6.4 ± 0.7 µM |
| SLLGRMKG(β-A)C (SLLGRMKG[βAla]C) | 1.8 ± 0.4 µM |
| SLLGRMKGA | 2.4 ± 0.2 µM |

biological target: HBV core antigen (Hepatitis B virus genotype D subtype adw, UniProt P03147); test: not given; conditions: fd fusion phage carrying the peptide sequence in the amino terminal region of gpIII; in solution, phage associated form; read-out: KD^Rel (nM) relative dissociation constant; cited from earlier work
Sequence (P03147 3-183): as above

| Molecule | Kd |
| --- | --- |
| ADGAHRSLLGRMKGA | 0.94 ± 0.12 nM |
| ADGALLGRMKPA | 767 ± 8 nM |
| ADGALLGRMKRA | 181 ± 12 nM |
| ADGHRSSLLGRMKGA | 1.4 ± 0.13 nM |
| ADGPRSSLLGRMKGA | 0.84 ± 0.07 nM |
| ADGSLLGRMKPA | 322 ± 50 nM |
| ADGSRSSLLGRMKGA | 1.96 ± 0.32 nM |
| ADGTLLGRMKLA | 20 ± 2 nM |
| ADGTQRSLLGRMKGA | 0.84 ± 0.06 nM |
| ADGYQRSLLGRMKGA | 0.88 ± 0.08 nM |
| ADRSLLGRMKGA | 1.09 ± 0.02 nM |

system: not listed separately; test: storage stability of HBV core antigen preparations; type: physicochemical; conditions: 4° C., sucrose gradient fractions in TBS, sucrose (20%), NaN3 (0.02%)
Description: Expression of either HBV core antigen (aa3-183) or C-terminally truncated HBV core antigen aa3-148) in E.coli and purification were performed as described in Dyson and Murray (1995). Protein preparations were stored at 4° C. as sucrose gradient fractions in a buffer containing TBS, sucrose (20%) and NaN3 (0.02%).

| Molecule | stability of protein preparation on storage |
| --- | --- |
| C-terminally truncated HBV core antigen aa3-148: C-terminally truncated HBV core antigen expressed in E.coli (protein) IDPYKEFGATVELLSFLPSDFFPSVRDLLDTASALYREALESPEHCSPHHTALRQAILCWGELMTLATWVGVNLEDPASRDLVVSYVNTNMGLKFRQLLWFHISCLTFGRETVIEYLVSFGVWIRTPPAYRPPNAPILSTLPETTV | stable in this form for at least six months |

— patent publication US6627202B2, “HBV core antigen particles with multiple immunogenic components attached via peptide ligands” (Biogen, Inc., priority 1998, dated 2003)
